Read-outs that look alike come from different tables or passages of the source.
Assays:
[1] = target: T1, human CB2 (hCB2) receptor (Homo sapiens, UniProt P34972); assay: Inhibition of forskolin-activated cAMP production upon activation of hCB2 (HTRF), CHO-K1 cells; format: cell-based; conditions: for ratio CB2 agonism over CB1 agonism: Table C-1, selectivity hCB2 over hCB1; for EC50: forskolin-activated cAMP, pEC50=-log(EC50); for ratio CB2 over CB1 agonism: Table C-3, comparison of art compounds A to E with compounds of the invention
T1 construct: expressed in transfected cells; host or cells: CHO-K1
T1 sequence (P34972 whole entry): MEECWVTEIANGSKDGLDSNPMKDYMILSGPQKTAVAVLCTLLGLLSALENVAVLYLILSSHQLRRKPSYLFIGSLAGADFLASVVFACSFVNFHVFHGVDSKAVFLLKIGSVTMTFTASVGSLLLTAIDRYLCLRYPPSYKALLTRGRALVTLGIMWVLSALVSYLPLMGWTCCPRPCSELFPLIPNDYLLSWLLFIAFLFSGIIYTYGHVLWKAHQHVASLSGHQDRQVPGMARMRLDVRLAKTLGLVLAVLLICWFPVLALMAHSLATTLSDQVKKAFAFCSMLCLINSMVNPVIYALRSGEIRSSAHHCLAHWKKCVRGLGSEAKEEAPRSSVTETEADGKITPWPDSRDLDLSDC
Protocol: (§1) Functional activity of the test compounds was assessed by measuring their potency to inhibit forskolin-activated cAMP production upon activation of the human CB1 (hCB1) or human CB2 (hCB2) receptor through homogenous time resolved fluorescence (HTRF) assays.
(§2) Before the experiments, medium was removed, cells were washed with PBS/EDTA (140 mM NaCl, 1 mM Naz-EDTA, 8 mM Na2HPO4.2H2O, 8.5 mM KH2PO4, 2.7 mM KCl, 21 mM glucose), resuspended in stimulation buffer (HBSS 1x, IBMX 1 mM, Hepes 5 mM, MgCl2 10 mM, BSA 0.1%, pH 7.4). Cells were diluted to a concentration of 8.10^5 cell/ml for hCB1 experiments and 10^6 cells/ml for hCB2 experiments. Assays were performed using the cAMP Dynamic HTRF kit (CIS bio international, France) according to the recommendations of the manufacturer.
Then, 20 μl of the diluted hCB2-CHO-K1 cells was added (20,000 cells/well). After 30 minutes incubation in dark at room temperature, 10 μl cAMP-XL665 and 10 μl anti-cAMP cryptate (both at a final dilution of 1/100) was added to the cells.

[2] = target: T2, human CB1 (hCB1) receptor (Homo sapiens, UniProt P21554); assay: Inhibition of forskolin-activated cAMP production upon activation of hCB1 (HTRF), CHO-K1 cells; format: cell-based
T2 construct: expressed in transfected cells; host or cells: CHO-K1
T2 sequence (P21554 whole entry): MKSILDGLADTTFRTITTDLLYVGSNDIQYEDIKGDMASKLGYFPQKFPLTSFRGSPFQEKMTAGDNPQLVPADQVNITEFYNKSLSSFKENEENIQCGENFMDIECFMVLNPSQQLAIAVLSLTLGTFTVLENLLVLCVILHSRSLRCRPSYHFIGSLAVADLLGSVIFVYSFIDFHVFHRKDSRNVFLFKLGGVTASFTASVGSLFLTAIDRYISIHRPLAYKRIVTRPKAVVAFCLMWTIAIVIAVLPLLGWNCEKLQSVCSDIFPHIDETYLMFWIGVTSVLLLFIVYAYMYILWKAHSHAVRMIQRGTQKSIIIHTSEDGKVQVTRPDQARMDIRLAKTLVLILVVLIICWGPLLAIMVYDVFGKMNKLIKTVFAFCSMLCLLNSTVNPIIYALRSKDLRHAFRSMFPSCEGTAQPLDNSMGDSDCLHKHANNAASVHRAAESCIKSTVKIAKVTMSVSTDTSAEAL
Protocol: as §1
as §2, with “CHO-K1 cells stably transfected with either hCB1 or hCB2 were grown up to 80-90% confluence in T175 Falcon flasks in DMEM/NUT MIX F-12 culture medium complemented with 2% Solution A (5.10^6 IU/l penicillin G, 5 g/l streptomycin sulphate, 5.5 g/l pyruvate, 14.6 g/l L-glutamine, 1M NaOH) and 10% foetal calf serum. Before” for “Before”
For CB1, each well of a 96 flat bottom black polystyrene assay plate (Costar) was filled with 25 μl stimulation buffer containing 6 μM forskolin and either test compound (in 2% DMSO), 2% DMSO or 2 μM CP55490 (in 2% DMSO). Then, 25 μl of the diluted cells was added (20,000 cells/well). After 30 minutes incubation in dark at room temperature, 25 μl cAMP-XL665 and 25 μl anti-cAMP cryptate (both at a final dilution of 1/80) was added to the cells.
After equilibration of the reaction mixtures for 1 to 24 hours in dark at room temperature, fluorescence was measured at 665 nm and 620 nm using a Discovery microplate fluorescence counter (Perkin Elmer), and the signal ratio of 665 nm/620 nm was calculated. The signal ratios of the test compounds were expressed relative to the signal ratios of the DMSO control (maximal signal ratio, no inhibition of cAMP) and CP55490 or WIN55212-2 for hCB1 and hCB2, respectively (minimal signal ratio, maximal inhibition of cAMP). From the dose response curves generated for each test compound, the dose at which 50% of the maximal inhibition of cAMP level is observed (EC50, expressed in the Tables as pEC50=−log(EC50) values) and the level of inhibition reached with 10 μM of the test compound compared to CP55490 (for hCB1) or WIN55212-2 (for hCB2) was calculated.

[3] = hCB2-CHO-K1 cells, read-out: CB2 pEC50 (converted)
[4] = CB1 pEC50, hCB1-CHO-K1 cells, forskolin-activated cAMP, pEC50=-log(EC50)

SMILES | ratio CB2 agonism over CB1 agonism [1] | EC50 [1, 3] | EC50 [2, 4] | also measured
CC(=O)NCCCCc1cc(S(=O)(=O)c2ccc3c(c2)nc(C(C)(C)C)n3CC2CCOCC2)ccn1 [Co. No. 141] | >1792 | 5.62 nM | > 10000 nM | –
CC(C)(C)c1nc2cc([S+]([O-])c3cc[n+]([O-])cc3)ccc2n1CC1CCOCC1 (stereo not shown) [Co. No. 2] | – | 38 nM | > 10000 nM | –
CC(C)(C)c1nc2cc([S+]([O-])c3ccc(Cl)nn3)ccc2n1CC1CCOCC1 (stereo not shown) [Co. No. 31] | 353 | 1.2 nM | 427 nM | –
CC(C)(C)c1nc2cc(S(=O)(=O)c3sc(S(C)(=O)=O)cc3Br)ccc2n1CC1CCOCC1 [Co. No. 64] | – | – | 1860 nM | EC50 ([1]; CB2 pEC50, hCB2-CHO-K1 cells): 0.479 nM; ratio CB2 agonism over CB1 agonism ([1]; listed as 64): 3920
Cc1[nH][n+]([O-])cc1[S+]([O-])c1ccc2c(c1)nc(C(C)(C)C)n2CC1CCOCC1 (stereo not shown) [Co. No. 137] | – | 1.12 nM | 776 nM | –
COCCCc1cc(S(=O)(=O)c2ccc3c(c2)nc(C(C)(C)C)n3CC2CCOCC2)cc[n+]1[O-] [Co. No. 155] | – | – | – | EC50 ([1]; CB2 pEC50, hCB2-CHO-K1 cells): 2.51 nM; EC50 [2]: > 10000 nM
CC(C)(C)c1nc2cc(S(=O)(=O)c3ccnc(F)c3)ccc2n1CCC1OCCO1 [Co. No. 165] | >923 | 10.7 nM | > 10000 nM | –
Cc1cccc(S(=O)(=O)c2ccc3c(c2)nc(C(C)(C)C)n3CC2CCOCC2)n1 [Co. No. 109] | 324 | 0.813 nM | 263 nM | –
CC(C)(C)c1nc2cc(S(=O)(=O)c3ccnc(F)c3)ccc2n1CC1CCCCO1 (stereo not shown) [Co. No. 113] | 302 | 2.63 nM | 794 nM | –
CC(C)(C)c1nc2cc(S(=O)(=O)c3ccnc(OCCCN)c3)ccc2n1CC1CCOCC1 [Co. No. 131] | >631 | 15.8 nM | > 10000 nM | –
CCCC(C)Cn1c(C(C)(C)C)nc2cc(S(=O)(=O)c3ccnc(F)c3)ccc21 (stereo not shown) [Co. No. 148] | >38905 | 0.257 nM | > 10000 nM | –
CC(C)(C)c1nc2cc(S(=O)(=O)c3ccnc(F)c3)ccc2n1CC1CCOC(=O)CC1 (stereo not shown) [Co. No. 145] | >3090 | 3.24 nM | > 10000 nM | –
CCC(C)(C)c1nc2cc(S(=O)(=O)c3ccc(OC)nn3)ccc2n1CC1CCC1 [Co. No. 26] | 676 | 0.794 nM | 537 nM | –
COc1c[n+]([O-])ccc1S(=O)(=O)c1ccc2c(c1)nc(C(C)(C)C)n2CC1CCOCC1 [Co. No. 115] | – | 3.72 nM | 3630 nM | –
CC(C)(C)c1nc2cc(S(=O)(=O)c3ccnc(F)c3)ccc2n1CC1CCC1 [Co. No. 136] | >22734 | 0.437 nM | > 10000 nM | –
CC(C)(C)c1nc2cc(S(=O)(=O)c3ccc(O)nc3)ccc2n1CC1CCCCC1 [Co. No. 39] | 1216 | 1.7 nM | 2040 nM | –
CC(C)(C)c1nc2cc(S(=O)(=O)c3ccc(OCC(F)(F)F)nc3)ccc2n1CC1CCOCC1 [Co. No. 108] | >3890 | 2.57 nM | > 10000 nM | –
Cc1noc(C)c1S(=O)(=O)c1ccc2c(c1)nc(C(C)(C)C)n2CC1CCOCC1 [Co. No. 15] | 556 | 1.05 nM | 575 nM | –
CCCCN(C)c1cc(S(=O)(=O)c2ccc3c(c2)nc(C(C)(C)C)n3CC2CCOCC2)ccn1 [Co. No. 138] | 473 | 1.74 nM | 832 nM | –

SMILES | ratio CB2 agonism over CB1 agonism [1] | EC50 [1, 3] | EC50 [2, 4] | also measured
CC(=O)c1ccc([S+]([O-])c2ccc3c(c2)nc(C(C)(C)C)n3CC2CCOCC2)nc1 (stereo not shown) [Co. No. 32] | 2951 | 2.57 nM | 7590 nM | –
CC(C)(C)c1nc2cc(S(=O)(=O)c3ccnc(OC(F)F)c3)ccc2n1CC1CCOCC1 [Co. No. 14] | 4898 | 0.776 nM | 3800 nM | ratio CB2 over CB1 agonism [1]: 4898
CC(C)(C)c1nc2cc(S(=O)(=O)c3ccc(C(=O)N4CCCC4)o3)ccc2n1CC1CCOCC1 [Co. No. 74] | 668 | 3.16 nM | 2090 nM | –
CC(C)(C)c1nc2cc(S(=O)(=O)c3ccncc3)ccc2n1CC1CCOCC1 [Co. No. A, reference compound] | – | – | – | ratio CB2 over CB1 agonism [1]: 215
COc1ccc(S(=O)(=O)c2ccc3c(c2)nc(C(C)(C)C)n3CC2CCOCC2)cn1 [Co. No. 54] | – | 0.933 nM | 123 nM | ratio CB2 agonism over CB1 agonism ([1]; listed as 54): 133
CC(C)(C)c1nc2cc(S(=O)(=O)c3ncc(S(C)(=O)=O)cc3Br)ccc2n1CC1CCOCC1 [Co. No. 76] | >832 | 12 nM | > 10000 nM | –
Cc1cc(S(=O)(=O)c2ccc3c(c2)nc(C(C)(C)C)n3CC2CCOCC2)ccn1 [Co. No. 13] | 1622 | 1.26 nM | 2040 nM | –
CC(C)(C)c1nc2cc(S(=O)(=O)c3cc(S(C)(=O)=O)cnc3O)ccc2n1CC1CCOCC1 [Co. No. 77] | 1303 | 1.95 nM | 2570 nM | –
CC(C)(C)c1nc2cc(S(=O)(=O)c3ccnc(C#N)c3)ccc2n1CC1CCOCC1 [Co. No. 93] | – | – | > 10000 nM | EC50 ([1]; CB2 pEC50, hCB2-CHO-K1 cells): 1.48 nM; ratio CB2 agonism over CB1 agonism ([1]; listed as 93): >6761
C=Cc1cc(S(=O)(=O)c2ccc3c(c2)nc(C(C)(C)C)n3CC2CCOCC2)ccn1 [Co. No. 142] | 1413 | 0.955 nM | 1350 nM | –
COC(=O)c1ccc(S(=O)(=O)c2ccc3c(c2)nc(C(C)(C)C)n3CC2CCCCC2)nc1 [Co. No. 35] | 79 | 0.407 nM | 32.4 nM | –
COc1cc(S(=O)(=O)c2ccc3c(c2)nc(C(C)(C)C)n3CC2CCOCC2)ccn1 [Co. No. 70] | 2570 | 0.55 nM | 1410 nM | –
CC(=O)N1CCC(Cn2c(C(C)(C)C)nc3cc(S(=O)(=O)c4cc[n+]([O-])cc4)ccc32)CC1 [Co. No. 143] | – | 17 nM | > 10000 nM | –
COc1ncc(S(=O)(=O)c2ccc3c(c2)nc(C(C)(C)C)n3CC2CCOCC2)cn1 [Co. No. 111] | 372 | 1.15 nM | 427 nM | –
CC(C)(C)c1nc2cc(S(=O)(=O)c3cccc(C(F)(F)F)n3)ccc2n1CC1CCOCC1 [Co. No. 110] | 1905 | 0.55 nM | 1050 nM | –
CC(C)(C)Cc1nc2cc(S(=O)(=O)c3ccncc3)ccc2n1CC1CCOCC1 [Co. No. E, reference compound] | – | – | – | ratio CB2 over CB1 agonism [1]: 219
CC(C)(C)c1nc2cc(S(=O)(=O)c3ccoc3)ccc2n1CC1CCOCC1 [Co. No. D, reference compound] | – | – | – | ratio CB2 over CB1 agonism [1]: 26
CC(C)(C)c1nc2cc(S(=O)(=O)c3ccccn3)ccc2n1CC1CCOCC1 [Co. No. C, reference compound] | – | – | – | ratio CB2 over CB1 agonism [1]: 36
CC(C)(C)c1nc2cc(S(=O)(=O)c3cccnc3)ccc2n1CC1CCOCC1 [Co. No. B, reference compound] | – | – | – | ratio CB2 over CB1 agonism [1]: 30

From US9284303B2, “Benzimidazole cannabinoid agonists bearing a substituted heterocyclic group” (priority 2006, dated 2016)
